Consider nine molecules from ChEMBL document CHEMBL2073872, “Rat multispecific organic anion transporter 1 (rOAT1) transports zidovudine, acyclovir, and other antiviral nucleoside analogs” (J Pharmacol Exp Ther, 2000).

The target in data set [1] is T1, Solute carrier family 22 member 6 (Rattus norvegicus, UniProt O35956).
T1 sequence (O35956 whole entry): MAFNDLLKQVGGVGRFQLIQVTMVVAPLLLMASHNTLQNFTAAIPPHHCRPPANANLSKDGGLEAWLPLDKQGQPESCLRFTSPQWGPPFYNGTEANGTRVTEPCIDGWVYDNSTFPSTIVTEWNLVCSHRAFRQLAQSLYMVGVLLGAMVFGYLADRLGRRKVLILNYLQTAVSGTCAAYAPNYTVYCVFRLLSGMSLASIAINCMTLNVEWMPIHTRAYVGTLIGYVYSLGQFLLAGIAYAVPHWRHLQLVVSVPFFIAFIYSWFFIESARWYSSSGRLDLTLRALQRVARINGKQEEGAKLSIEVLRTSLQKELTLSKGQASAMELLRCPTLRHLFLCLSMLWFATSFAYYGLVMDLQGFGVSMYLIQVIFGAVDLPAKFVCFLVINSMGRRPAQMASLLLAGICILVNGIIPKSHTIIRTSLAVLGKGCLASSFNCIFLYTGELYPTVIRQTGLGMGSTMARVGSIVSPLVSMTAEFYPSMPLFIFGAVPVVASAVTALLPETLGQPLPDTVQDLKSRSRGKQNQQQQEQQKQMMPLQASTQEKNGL
The data set is described as follows: (§1) TP_TRANSPORTER: uptake in Xenopus laevis oocytes. The data set is classed as functional, cell-based, Oocyte. Conditions: for Activity: oocyte.

Data set [2] concerns the target T1, Solute carrier family 22 member 6. In words: TP_TRANSPORTER: inhibition of PAH uptake (PAH: 2 uM, Trifluridine: 1000 uM) in Xenopus laevis oocytes. The data set is classed as functional, cell-based. The settings on record: oocyte.
The target is the same in data set [3]. In words: TP_TRANSPORTER: inhibition of PAH uptake (PAH: 2 uM, Foscarnet: 1000 uM) in Xenopus laevis oocytes. Conditions: oocyte. The data set is classed as functional, cell-based.
The target is the same in data set [4]. The data set is described as follows: TP_TRANSPORTER: inhibition of PAH uptake (PAH: 2 uM, ACV: 1000 uM) in Xenopus laevis oocytes. The class given is functional, cell-based. The settings on record: oocyte.
Substrate in data set [5]: Nc1nc2c(ncn2COCCO)c(=O)[nH]1
The data set is described as §1. The data set is classed as functional, cell-based, Oocyte.

For `Nc1ccn([C@@H]2CS[C@H](CO)O2)c(=O)n1` [LAMIVUDINE], in data set [1], the Activity result was “substrate [+]”.

Regarding `O=c1[nH]c(=O)n([C@H]2C[C@H](O)[C@@H](CO)O2)cc1C(F)(F)F` [TRIFLURIDINE], the Activity entry in data set [2] was “inhibitor [(at a rough estimate) 50 % of control]”; in data set [1], “substrate [+]”.

With `O=C(O)P(=O)(O)O` [FOSCARNET], the Activity result is “is not an inhibitor [-]” in data set [3] and “is not a substrate [-]” in data set [1].

On to `Cc1cn([C@H]2C[C@H](N=[N+]=[N-])[C@@H](CO)O2)c(=O)[nH]c1=O` [ZIDOVUDINE], for which the Km in data set [1] (Xenopus laevis oocytes) amounted to 68 µM.

As to `Nc1nc2c(ncn2COCCO)c(=O)[nH]1` [ACYCLOVIR], in data set [4], the Activity result is “inhibitor [(at a rough estimate) 50 % of control]”.

`O=c1[nH]cnc2c1ncn2[C@H]1CC[C@@H](CO)O1` [DIDANOSINE]: the Activity result in data set [1] was “substrate [+]”.

On to `Nc1ccn([C@H]2CC[C@@H](CO)O2)c(=O)n1` [ZALCITABINE], for which the Activity result in data set [1] is “substrate [+]”.

On to `Cc1cn([C@H]2C=C[C@@H](CO)O2)c(=O)[nH]c1=O` [STAVUDINE], for which the Activity result in data set [1] was “substrate [+]”.

B1: Solute carrier family 22 member 6 (Rattus norvegicus) (protein)
chain: MAFNDLLKQVGGVGRFQLIQVTMVVAPLLLMASHNTLQNFTAAIPPHHCRPPANANLSKDGGLEAWLPLDKQGQPESCLRFTSPQWGPPFYNGTEANGTRVTEPCIDGWVYDNSTFPSTIVTEWNLVCSHRAFRQLAQSLYMVGVLLGAMVFGYLADRLGRRKVLILNYLQTAVSGTCAAYAPNYTVYCVFRLLSGMSLASIAINCMTLNVEWMPIHTRAYVGTLIGYVYSLGQFLLAGIAYAVPHWRHLQLVVSVPFFIAFIYSWFFIESARWYSSSGRLDLTLRALQRVARINGKQEEGAKLSIEVLRTSLQKELTLSKGQASAMELLRCPTLRHLFLCLSMLWFATSFAYYGLVMDLQGFGVSMYLIQVIFGAVDLPAKFVCFLVINSMGRRPAQMASLLLAGICILVNGIIPKSHTIIRTSLAVLGKGCLASSFNCIFLYTGELYPTVIRQTGLGMGSTMARVGSIVSPLVSMTAEFYPSMPLFIFGAVPVVASAVTALLPETLGQPLPDTVQDLKSRSRGKQNQQQQEQQKQMMPLQASTQEKNGL
Turning to B1, the Km in data set [5] came to 242 µM.

As usually defined, the Km is the substrate concentration at which the rate is half of its maximum.
